Reference: patent publication US20110206689A1, “Molecular Determinants Associated With Prostate Cancer And Methods Of Use Thereof” (Dana-Farber Cancer Institute, Inc., priority 2010, published 2011)

Key:
Type in all cases: cell-based, human
TK1 [1] = assay: Androgen induction of TK1 protein expression in LNCaP cells (immunoblot); conditions: LNCaP cells in hormone depleted medium, 10 nM R1881, immunoblot
Description: FIG. 3. […] Androgen responsive LNCaP cells cultured in hormone depleted medium were treated with 10 nM of the synthetic androgen, R1881, for the indicated times, and TK1 expression was assayed by immunoblot analysis. […] Small hairpins targeting AR were introduced into LNCaP cells infected with TK1, or control uninfected LNCaP cells. Cell proliferation was monitored. Relative proliferation is normalized to the shGFP control.
(§1) Immunoblots were performed as previously described {Boehm, 2005 #51}. The following antibodies were used: TK1 (Abcam, ab57757), AR (Santa Cruz, sc-7305), Flag (Sigma, M2), PDK1 (Becton Dickinson, 611070), p-PDK1 (Becton Dickinson, 558395), AKT (Cell Signaling, 9272), p-AKT1-Thr308 (Cell Signaling, 4056), p-AKT1-Ser473 (Cell Signaling, 9271), p-AKT1-Thr450 (Cell Signaling, 9267), p-AKT1-Tyr326 (Cell Signaling, 2968), Actin (Santa Cruz, sc-47778).
TK1 has been reported to be induced by androgens in the rat prostate. […] To elucidate whether TK1 is sufficient to replace AR signaling in promoting cell proliferation and survival, we silenced AR expression in LNCaP cells by RNAi in the presence or absence of ectopic TK1 expression, and monitored cell death.

TK1 [2] = assay: Suppression of TK1 expression by shRNA in prostate cancer cell lines; conditions: lentiviral shRNA
Description: as §1
Stable suppression of TK1 and AR were accomplished by using the pLKO.1-puro lentiviral shRNA constructs previously described {Moffat, 2006 #52}. The sequences targeted by the hairpins are as follows: shTK1-3, […] (SEQ ID NO: 1); shTK1-4, […] (SEQ ID NO: 2); shTK1-5, […] (SEQ ID NO: 3); shAR-1, […] (SEQ ID NO: 4); shAR-4, […] (SEQ ID NO: 5); shAR-5, […] (SEQ ID NO: 6); shGFP, Experiments were performed in duplicate, in both the presence and absence of 1.5 ug/ml puromycin to monitor infection efficiency. Viable cells were counted using a Coulter Counter.
(§2) Next, we determined whether suppressing the expression of TK1 in prostate cancer cell lines that overexpress TK1 reverses their ability to proliferate or survive. […]

[3] = tested on: prostate cancer cell lines; assay: Effect of TK1 shRNA on proliferation of prostate cancer cell lines (all cultures); conditions: for cells remaining 12 days post infection: all cultures
Description: FIG. 2. TK1 overexpression synergizes with AKT1 to promote hormone independent prostate cancer. a) Androgen independent tumor formation. LHSR-AR cells were infected with the indicated constructs and injected subcutaneously into castrated mice, except where indicated. M-myristoylated; F-Flag tagged. b) AKT1 and TK1 promote nuclear translocation of AR independent of androgen. H&E and immunhistochemical staining for AR in subcutaneous tumor sections derived from LHSR-AR cells infected with the indicated constructs. Staining of androgen dependent GFP tumor is shown as control. Minimum of 3 tumors were stained per sample and representative images are shown. c) TK1 chromosomal amplification in hormone sensitive and refractory tumors. DNA from 16 hormone sensitive (HS) and 23 hormone refractory (HR) human prostate tumors (from FIG. 1b) were hybridized onto SNP arrays and analyzed for TK1 copy number gain (CNG). The number and percentage of tumors with and without amplification are indicated. d) TK1 protein expression in hormone sensitive and refractory tumors. Prostate tumor microarrays containing 73 hormone sensitive (HS) and 11 hormone resistant (HS) tumor cores were analyzed for TK1 protein expression by immunohistochemistry. The number and percentage of tumors negative and positive for TK1 expression are indicated. d) Immunoblot analysis for TK1 expression in the indicated prostate cancer cell lines. Actin was used to control for loading. e) Effect of TK1 suppression on the proliferation of prostate cancer cells. […] Relative cell number is normalized to the shGFP control.
Stable suppression of TK1 and AR were accomplished by using the pLKO.1-puro lentiviral shRNA constructs previously described {Moffat, 2006 #52}. The sequences targeted by the hairpins are as follows: shTK1-3, […] (SEQ ID NO: 1); shTK1-4, […] (SEQ ID NO: 2); shTK1-5, […] (SEQ ID NO: 3); shAR-1, […] […] Viable cells were counted using a Coulter Counter.
as §2

C4-2 cells = assay: Effect of TK1 suppression by shRNA on cell number of prostate cancer cells (viable cells counted with Coulter Counter); conditions: C4-2 cultures, relative to shGFP control
Description: (§3) FIG. 2. TK1 overexpression synergizes with AKT1 to promote hormone independent prostate cancer. a) Androgen independent tumor formation. LHSR-AR cells were infected with the indicated constructs and injected subcutaneously into castrated mice, except where indicated. M-myristoylated; F-Flag tagged. b) AKT1 and TK1 promote nuclear translocation of AR independent of androgen. H&E and immunhistochemical staining for AR in subcutaneous tumor sections derived from LHSR-AR cells infected with the indicated constructs. Staining of androgen dependent GFP tumor is shown as control. Minimum of 3 tumors were stained per sample and representative images are shown. c) TK1 chromosomal amplification in hormone sensitive and refractory tumors. DNA from 16 hormone sensitive (HS) and 23 hormone refractory (HR) human prostate tumors (from FIG. 1b) were hybridized onto SNP arrays and analyzed for TK1 copy number gain (CNG). The number and percentage of tumors with and without amplification are indicated. d) TK1 protein expression in hormone sensitive and refractory tumors. Prostate tumor microarrays containing 73 hormone sensitive (HS) and 11 hormone resistant (HS) tumor cores were analyzed for TK1 protein expression by immunohistochemistry. The number and percentage of tumors negative and positive for TK1 expression are indicated. d) Immunoblot analysis for TK1 expression in the indicated prostate cancer cell lines. Actin was used to control for loading. e) Effect of TK1 suppression on the proliferation of prostate cancer cells. Cells were infected with three different hairpins targeting TK1 and a control hairpin targeting GFP, and cell numbers determined 5 days post infection. Relative cell number is normalized to the shGFP control.
(§4) LHSR-AR {Berger, 2004 #15}, LNCaP {Horoszewicz, 1980 #23}, C4-2 {Wu, 1994 #18}, CL-1 {Patel, 2000 #16}, LNCaP-abl {Culig, 1999 #49} and LAPC4 {Klein, 1997 #34} cells have previously been described. LHSR-AR cells were cultured in PrEGM with growth supplements (Lonza). LNCaP were cultured in RPMI supplemented with 10% fetal bovine serum, 1 mM sodium pyruvate and 10 mM Hepes. C4-2, CL-1 and LNCaP-abl were cultured in phenol red free RMPI supplemented with 10% charcoal stripped fetal bovine serum, 1 mM sodium pyruvate and 10 mM Hepes. LAPC4 cells were cultured in IMDM supplemented with 10% fetal bovine serum and 1 nM R1881.
(§5) Stable suppression of TK1 and AR were accomplished by using the pLKO.1-puro lentiviral shRNA constructs previously described {Moffat, 2006 #52}. The sequences targeted by the hairpins are as follows: shTK1-3, […] […] Viable cells were counted using a Coulter Counter.
as §2

CL-1 cells = assay: as above; conditions: relative to shGFP control
Description: as §3, §4, §5, §2

Row | Molecule | TK1 protein expression (TK1 [1]) | suppression of TK1 expression (TK1 [2]) | proliferation ([3]; prostate cancer cell lines, 5 days post infection) | cells remaining 12 days post infection [3] | cell number 5 days post infection (C4-2 cells) | cell number 5 days post infection (CL-1 cells)
1 | C[C@]1(O)CC[C@H]2[C@@H]3CCC4=CC(=O)CCC4=C3C=C[C@@]21C [R1881] | androgen induced |  |  |  |  | 
2 | shTK1-3: pLKO.1-puro lentiviral shRNA targeting TK1 sequence AGACCGTAATTGTGGCTGCAC (SEQ ID NO: 1) (target site or template, no part of the molecule) |  | did not efficiently suppress TK1 expression | did not affect proliferation |  |  | 
3 | shTK1-4: pLKO.1-puro lentiviral shRNA targeting TK1 sequence GGGAAGCCGCCTATACCAAGA (SEQ ID NO: 2) (target site or template, no part of the molecule) |  |  |  | few cells remaining | reduced cell number | did not significantly affect
4 | shTK1-5: pLKO.1-puro lentiviral shRNA targeting TK1 sequence TGTCGGCTCTGCTACTTCAAG (SEQ ID NO: 3) (target site or template, no part of the molecule) |  |  |  | few cells remaining | reduced cell number | did not significantly affect
